Data from US4111751A, “Method of purifying alcohol dehydrogenase” (President and Fellows of Harvard College, priority 1977, dated 1978).

Legend:
[1] = biological target: all other forms of liver alcohol dehydrogenase; assay: inhibition of the other (pyrazole-sensitive) forms of liver alcohol dehydrogenase; format: biochemical, human
Excerpt: (§1) However, purification of these enzymes has been a complicated and difficult procedure. […] Elution is preferably carried out with pyrazole solution or with a lower alkanol having at least two carbon atoms, e.g., ethanol, 1-propanol, 1-butanol, 1-pentanol, and the like. Further purification and separation of isoenzymes from the bound portion can be achieved by alcohol gradient elution. The alcohol dehydrogenase of the bound portion can be separated from the NAD after elution, if desired, by conventional dialysis procedures. […] The anodic band of liver alcohol dehydrogenase, as identified by Li et al., Biochem. Biophys. Res. Comm.

[2] = tested on: human liver alcohol dehydrogenase; assay: inhibition of alcohol dehydrogenase activity of frozen human liver starting material; format: biochemical; settings: 33 micromolar, pH 10, frozen human liver
Description: Starting with 100 g frozen human liver having a specific activity at pH 10 of about 0.05 I.U./mg and low inhibition (~ 75%) by 33 micromolar 4-methyl-pyrazole at pH 10 as well as high intensity of stain for the anodic band on starch gel electrophoresis, the liver was homogenized in 2.5 volumes water at 4° C., centrifuged for 30 min. at 30,000 rpm in a 30 rotor to provide 240 ml. of clear supernatant assaying at 58 I.U. of pyrazole-insensitive activity with a specific activity of 0.002 I.U./mg.

[3] = biological target: T1, II-ADH (anodic band of liver alcohol dehydrogenase) (Homo sapiens, UniProt P08319); assay: inhibition of purified II-ADH (anodic band, pyrazole-insensitive liver alcohol dehydrogenase) activity; format: biochemical
T1 construct: Starting with 100 g frozen human liver; from tissue; host or cells: human liver (frozen), purified
Excerpt: as §1

[4] = biological target: T1, II-ADH (anodic band of liver alcohol dehydrogenase); format: biochemical; settings: pH 7.5; read-out: Km for ethanol
Excerpt: as §1

[5] = tested on: other forms of liver alcohol dehydrogenase; settings: read-out: Km for ethanol; cited from earlier work

T1 sequence (P08319 2-380 limits assumed): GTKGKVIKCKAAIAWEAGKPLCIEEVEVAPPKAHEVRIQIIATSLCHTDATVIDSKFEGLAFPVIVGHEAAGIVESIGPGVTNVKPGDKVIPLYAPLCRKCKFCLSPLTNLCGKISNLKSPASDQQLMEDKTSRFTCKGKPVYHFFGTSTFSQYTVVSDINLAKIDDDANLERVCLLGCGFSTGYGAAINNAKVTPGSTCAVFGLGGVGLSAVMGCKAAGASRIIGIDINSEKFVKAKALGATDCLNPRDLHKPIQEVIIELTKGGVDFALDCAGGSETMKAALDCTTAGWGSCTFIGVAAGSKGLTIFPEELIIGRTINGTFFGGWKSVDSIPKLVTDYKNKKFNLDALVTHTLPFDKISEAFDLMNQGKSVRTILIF

## c1cn[nH]c1 [pyrazole]
[1]; all other forms of liver alcohol dehydrogenase
  Ki: < 1000 nM

## Cc1cn[nH]c1 [4-methylpyrazole]
[1]; 0.2 mM 4-methylpyrazole, 100 mM ethanol, remainder of purified enzyme forms
  inhibition of activity: more than 90%
[2]
  inhibition: ~ 75%
[3]; 0.2 mM 4-methylpyrazole, 100 mM ethanol, purified II-ADH
  inhibition at 200 µM: < 10%
[3]; 33 micromolar, product after agarose-AMP
  inhibition: virtually uninhibited
[3]; eluant (effluent) of pyrazole affinity resin containing the anodic band
  Vi/Vc: 95-100%

## CCO [ethanol]
[4]
  Km: 15 to 30 mM
[5]
  Km: ≤ 1 mM
